The text below walks through data of patent US20060264460A1 (Wyeth, priority 2005, published 2006).

SMILES strings stand for the structures. Some results are limits rather than exact numbers.

For this test, the target named is T1, human Cot/Tpl2 kinase (Homo sapiens, UniProt P41279).
T1 construct: human Cot/Tpl2 kinase construct encoding residues 30-398; 6His (N); made in house; host or cells: Sf9 insect cells, baculovirus system (BD Biosciences)
T1 sequence (P41279 30-398): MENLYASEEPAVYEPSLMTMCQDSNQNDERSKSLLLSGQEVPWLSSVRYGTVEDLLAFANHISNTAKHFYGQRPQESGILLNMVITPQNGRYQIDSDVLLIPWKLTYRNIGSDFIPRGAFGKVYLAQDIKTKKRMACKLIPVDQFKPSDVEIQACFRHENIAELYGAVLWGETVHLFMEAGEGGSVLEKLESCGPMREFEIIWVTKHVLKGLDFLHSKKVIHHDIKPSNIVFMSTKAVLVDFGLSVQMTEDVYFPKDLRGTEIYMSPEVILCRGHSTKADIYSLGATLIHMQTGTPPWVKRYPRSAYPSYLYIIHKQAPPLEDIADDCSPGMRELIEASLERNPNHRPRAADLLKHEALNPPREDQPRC
Description: Tpl2/Cot kinase assay: GST-MEK1 phosphorylation detected by ELISA (DELFIA Eu). It counts as biochemical. The following applies: 0.4 nM Tpl2, 35 nM GST-MEK1, 50 uM ATP, 1 h at 30° C. Summed up:
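Substrate phosphorylation (GST-MEK1 Ser217/221) quantified by DELFIA europium ELISA, yielding IC50 values. Reaction: 1 h at 30° C, pH 7.2 MOPS buffer, 50 uM ATP, 35 nM GST-MEK1, 0.4 nM monomeric His-Tpl2 purified from Sf9 cells, compounds at 1% final DMSO; stopped with EDTA.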
For `Cc1cccc(CNc2cc(Cl)c3ncc(C#N)c(Nc4ccc(F)c(Cl)c4)c3c2)[n+]1[O-]` [Example 195, 8-chloro-4-[(3-chloro-4-fluorophenyl)amino]-6-{[(6-methyl-1-oxidopyridin-2-yl)methyl]amino}quinoline-3-carbonitrile], the IC50 worked out at 32 nM.
For the compound `Cc1ccc[n+]([O-])c1CNc1cc(Cl)c2ncc(C#N)c(Nc3ccc(F)c(Cl)c3)c2c1` [Example 196, 8-chloro-4-[(3-chloro-4-fluorophenyl)amino]-6-{[(3-methyl-1-oxidopyridin-2-yl)methyl]amino}quinoline-3-carbonitrile], the midpoint of inhibition, the IC50, lay at 66 nM.
With `N#Cc1cnc2c(Cl)cc(NCc3c(CCCO)ncn3COCc3ccccc3)cc2c1Nc1ccc(F)c(Cl)c1` [Example 198, 6-({[1-[(benzyloxy)methyl]-4-(3-hydroxypropyl)-1H-imidazol-5-yl]methyl}amino)-8-chloro-4-[(3-chloro-4-fluorophenyl)amino]quinoline-3-carbonitrile], the IC50 turned out to be 870 nM. Against the preceding compound, the IC50 is about 13-fold higher.
With `CCNc1cc(Cl)c2ncc(C#N)c(Nc3ccc(F)c(Cl)c3)c2c1` [Example 199, 8-chloro-4-[(3-chloro-4-fluorophenyl)amino]-6-(ethylamino)quinoline-3-carbonitrile] the figure was 1400 nM.
With `N#Cc1cnc2c(Cl)cc(NCCc3nnn[nH]3)cc2c1Nc1ccc(F)c(Cl)c1` [Example 200, 8-chloro-4-[(3-chloro-4-fluorophenyl)amino]-6-{[2-(1H-tetrazol-5-yl)ethyl]amino}quinoline-3-carbonitrile] the figure was 68 nM.
As to `Cn1cnc(CNc2cc(Cl)c3ncc(C#N)c(Nc4ccc(F)c(Cl)c4)c3c2)c1` [Example 201, 8-chloro-4-[(3-chloro-4-fluorophenyl)amino]-6-{[(1-methyl-1H-imidazol-4-yl)methyl]amino}quinoline-3-carbonitrile], the half-maximal inhibitory concentration (IC50) amounted to 9.1 nM. This IC50 is about 7.5-fold lower than that of the compound before.
With `N#Cc1cnc2c(Cl)cc(NCC3=NCCN3)cc2c1Nc1ccc(F)c(Cl)c1` [Example 204, 8-chloro-4-[(3-chloro-4-fluorophenyl)amino]-6-[(4,5-dihydro-1H-imidazol-2-ylmethyl)amino]quinoline-3-carbonitrile] the figure was 2600 nM.
`N#Cc1cnc2c(Cl)cc(NCc3[nH]cnc3CCCO)cc2c1Nc1ccc(F)c(Cl)c1` [Example 205, 8-chloro-4-[(3-chloro-4-fluorophenyl)amino]-6-({[4-(3-hydroxypropyl)-1H-imidazol-5-yl]methyl}amino)quinoline-3-carbonitrile] had a 50% inhibitory concentration (IC50) of 3.2 nM.
Consider `CN(C)C=Nc1cc(Cl)c2ncc(C#N)c(Nc3ccc(F)c(Cl)c3)c2c1` [Example 206, N′-{8-chloro-4-[(3-chloro-4-fluorophenyl)amino]-3-cyanoquinolin-6-yl}-N,N-dimethylimidoformamide], for which the IC50 was found to be 7400 nM.
Take `N#Cc1cnc2c(Cl)cc(NCCN=[N+]=[N-])cc2c1Nc1ccc(F)c(Cl)c1` [Example 210, 6-[(2-azidoethyl)amino]-8-chloro-4-[(3-chloro-4-fluorophenyl)amino]quinoline-3-carbonitrile]: the IC50 was 1900 nM.
With `N#Cc1cnc2c(Cl)cc(NCCn3ccnn3)cc2c1Nc1ccc(F)c(Cl)c1` [Example 211, 8-chloro-4-[(3-chloro-4-fluorophenyl)amino]-6-{[2-(1H-1,2,3-triazol-1-yl)ethyl]amino}quinoline-3-carbonitrile] the figure was 350 nM; with `N#Cc1cnc2c(Cl)cc(NCCn3ccnc3)cc2c1Nc1ccc(F)c(Cl)c1` [Example 212, 8-chloro-4-[(3-chloro-4-fluorophenyl)amino]-6-{[2-(1H-imidazol-1-yl)ethyl]amino}quinoline-3-carbonitrile], 400 nM; with `N#Cc1cnc2c(Cl)cc(NCCn3cc(CCO)nn3)cc2c1Nc1ccc(F)c(Cl)c1` [Example 213, 8-chloro-4-[(3-chloro-4-fluorophenyl)amino]-6-({2-[4-(2-hydroxyethyl)-1H-1,2,3-triazol-1-yl]ethyl}amino)quinoline-3-carbonitrile], 1500 nM.
In turn, `CC(C)c1nc[nH]c1CNc1cc(Cl)c2ncc(C#N)c(Nc3ccc(F)c(Cl)c3)c2c1` [Example 214, 8-chloro-4-[(3-chloro-4-fluorophenyl)amino]-6-{[(4-isopropyl-1H-imidazol-5-yl)methyl]amino}quinoline-3-carbonitrile] displayed a half-maximal inhibitory concentration (IC50) of 16 nM.
With `N#Cc1cnc2c(Cl)cc(NCc3nnn4ccccc34)cc2c1Nc1ccc(F)c(Cl)c1` [Example 216, 6-([1,2,3]triazolo[1,5-a]pyridin-3-ylmethylamino)-8-chloro-4-(3-chloro-4-fluorophenylamino)quinoline-3-carbonitrile] the figure was 5.9 nM; with `Cn1cc(CNc2cc(Cl)c3ncc(C#N)c(Nc4ccc(F)c(Cl)c4)c3c2)nn1` [Example 217, 8-chloro-4-[(3-chloro-4-fluorophenyl)amino]-6-{[(1-methyl-1H-1,2,3-triazol-4-yl)methyl]amino}quinoline-3-carbonitrile], 7.2 nM; with `COCC(=O)NCCn1cc(CNc2cc(Br)c3ncc(C#N)c(Nc4ccc(F)c(Cl)c4)c3c2)nn1` [Example 218, N-(2-(4-((8-bromo-4-(3-chloro-4-fluorophenylamino)-3-cyanoquinolin-6-ylamino)methyl)-1H-1,2,3-triazol-1-yl)ethyl)-2-methoxyacetamide], 32 nM.
With `COCC(=O)NCCn1cc(CNc2cc(Cl)c3ncc(C#N)c(Nc4ccc(F)c(Cl)c4)c3c2)nn1` [Example 219, N-(2-(4-((8-chloro-4-(3-chloro-4-fluorophenylamino)-3-cyanoquinolin-6-ylamino)methyl)-1H-1,2,3-triazol-1-yl)ethyl)-2-methoxyacetamide] the figure was 65 nM.
With `Cn1ccnc1CNc1cc(Br)c2ncc(C#N)c(Nc3ccc(F)c(Cl)c3)c2c1` [Example 220, 8-bromo-4-[(3-chloro-4-fluorophenyl)amino]-6-{[(1-methyl-1H-imidazol-2-yl)methyl]amino}quinoline-3-carbonitrile] the figure was 26 nM.
Compound `Cn1cc(CNc2cc(Br)c3ncc(C#N)c(Nc4ccc(F)c(Cl)c4)c3c2)nn1` [Example 221, 8-bromo-4-(3-chloro-4-fluorophenylamino)-6-((1-methyl-1H-1,2,3-triazol-4-yl)methylamino)quinoline-3-carbonitrile] registered an IC50 of 28 nM. This IC50 and that of the compound before are within 1.5-fold of each other.
`N#Cc1cnc2c(Cl)cc(NCc3cn(CCN4CCOC4=O)nn3)cc2c1Nc1ccc(F)c(Cl)c1` [Example 222, 8-chloro-4-(3-chloro-4-fluorophenylamino)-6-((1-(2-(2-oxooxazolidin-3-yl)ethyl)-1H-1,2,3-triazol-4-yl)methylamino)quinoline-3-carbonitrile]: the IC50 is 10 nM.
For the compound `N#Cc1cnc2c(Br)cc(NCc3cn(CCN4CCOC4=O)nn3)cc2c1Nc1ccc(F)c(Cl)c1` [Example 223, 8-bromo-4-(3-chloro-4-fluorophenylamino)-6-((1-(2-(2-oxooxazolidin-3-yl)ethyl)-1H-1,2,3-triazol-4-yl)methylamino)quinoline-3-carbonitrile], the IC50 was 37 nM.
With `N#Cc1cnc2c(Cl)cc(NCc3cn(CS(=O)(=O)N4CCOCC4)nn3)cc2c1Nc1ccc(F)c(Cl)c1` [Example 224, 8-chloro-4-(3-chloro-4-fluorophenylamino)-6-((1-(morpholinosulfonylmethyl)-1H-1,2,3-triazol-4-yl)methylamino)quinoline-3-carbonitrile] the figure was 280 nM; with `Cc1cc2ncc(C#N)c(Nc3ccc(F)c(Cl)c3)c2cc1NCc1cccnc1` [Example 225, 4-[(3-Chloro-4-fluorophenyl)amino]-7-methyl-6-[(pyridin-3-ylmethyl)amino]quinoline-3-carbonitrile], more than 40000 nM.
With `Cc1cc2ncc(C#N)c(Nc3ccc(F)c(Cl)c3)c2cc1NCc1cnc[nH]1` [Example 226, 4-[(3-chloro-4-fluorophenyl)amino]-6-[(1H-imidazol-5-ylmethyl)amino]-7-methylquinoline-3-carbonitrile], the 50% inhibitory concentration (IC50) is more than 40000 nM.
With `Cc1cc2ncc(C#N)c(Nc3ccc(F)c(Cl)c3)c2cc1NCCN1CCOCC1` [Example 227, 4-[(3-chloro-4-fluorophenyl)amino]-7-methyl-6-[(2-morpholin-4-ylethyl)amino]quinoline-3-carbonitrile] the figure was more than 40000 nM; with `N#Cc1cnc2ccc(NCc3c[nH]c(=O)[nH]c3=O)cc2c1Nc1ccc(F)c(Cl)c1` [Example 228, 4-[(3-chloro-4-fluorophenyl)amino]-6-{[(2,4-dioxo-1,2,3,4-tetrahydropyrimidin-5-yl)methyl]amino}quinoline-3-carbonitrile], 480 nM; with `N#Cc1cnc2c(C(F)(F)F)cc(NCc3cnc[nH]3)cc2c1Nc1ccc(F)c(Cl)c1` [Example 229, 4-[(3-chloro-4-fluorophenyl)amino]-6-[(1H-imidazol-5-ylmethyl)amino]-8-(trifluoromethyl)quinoline-3-carbonitrile], 190 nM.
`N#Cc1cnc2c(C(F)(F)F)cc(NCc3cccnc3)cc2c1Nc1ccc(F)c(Cl)c1` [Example 230, 4-[(3-chloro-4-fluorophenyl)amino]-6-[(pyridin-3-ylmethyl)amino]-8-(trifluoromethyl)quinoline-3-carbonitrile]: the IC50 was more than 40000 nM.
Turning to `N#Cc1cnc2c(C(F)(F)F)cc(NCc3ccccn3)cc2c1Nc1ccc(F)c(Cl)c1` [Example 231, 4-[(3-chloro-4-fluorophenyl)amino]-6-[(pyridin-2-ylmethyl)amino]-8-(trifluoromethyl)quinoline-3-carbonitrile], the half-inhibitory concentration (IC50) worked out at 19700 nM.
With `N#Cc1cccc(CNc2cc(C(F)(F)F)c3ncc(C#N)c(Nc4ccc(F)c(Cl)c4)c3c2)c1` [Example 232, 4-[(3-chloro-4-fluorophenyl)amino]-6-[(3-cyanobenzyl)amino]-8-(trifluoromethyl)quinoline-3-carbonitrile] the figure was 24000 nM.
